# In ChEMBL document CHEMBL1148292 (J Med Chem, 2004):
# Several values for one entry are separate records, joined by “and”; a condition that tells them apart may be missing. Equal entries are not always repeated.
# What was measured:
# Adenosine receptor A2b [1] = molecular target: T1, Adenosine receptor A2b (Homo sapiens, UniProt P29275); test: Binding affinity of compound for displacement of [3H]DPCPX binding in HEK293 membranes expressing human A2B adenosine receptors
# T1 sequence (P29275 whole entry): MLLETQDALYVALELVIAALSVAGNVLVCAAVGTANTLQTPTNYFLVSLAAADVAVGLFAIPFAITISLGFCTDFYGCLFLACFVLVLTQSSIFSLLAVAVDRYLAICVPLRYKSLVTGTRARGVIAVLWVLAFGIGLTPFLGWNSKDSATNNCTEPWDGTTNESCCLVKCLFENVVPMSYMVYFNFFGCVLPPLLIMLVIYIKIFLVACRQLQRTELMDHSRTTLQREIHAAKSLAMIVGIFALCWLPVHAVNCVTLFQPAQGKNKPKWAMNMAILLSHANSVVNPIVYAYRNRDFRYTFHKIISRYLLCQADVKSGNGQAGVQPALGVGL
# Adenosine receptor A2b [2] = molecular target: T1, Adenosine receptor A2b; test: Binding affinity of compound for displacement of specific [3H]- DPCPX binding at human A2B receptors expressed in HEK293 cells; type: cell-based
# Adenosine receptor A2b [3] = molecular target: T1, Adenosine receptor A2b; test: Inhibitory activity against cAMP production in CHO cells transfected with human A2B adenosine receptor; type: functional, cell-based
# Adenosine receptor A1 = molecular target: T2, Adenosine receptor A1 (Homo sapiens, UniProt P30542); test: Displacement of specific [3H]DPCPX binding at human adenosine A1 receptor expressed in CHO cells; type: cell-based
# T2 sequence (P30542 whole entry): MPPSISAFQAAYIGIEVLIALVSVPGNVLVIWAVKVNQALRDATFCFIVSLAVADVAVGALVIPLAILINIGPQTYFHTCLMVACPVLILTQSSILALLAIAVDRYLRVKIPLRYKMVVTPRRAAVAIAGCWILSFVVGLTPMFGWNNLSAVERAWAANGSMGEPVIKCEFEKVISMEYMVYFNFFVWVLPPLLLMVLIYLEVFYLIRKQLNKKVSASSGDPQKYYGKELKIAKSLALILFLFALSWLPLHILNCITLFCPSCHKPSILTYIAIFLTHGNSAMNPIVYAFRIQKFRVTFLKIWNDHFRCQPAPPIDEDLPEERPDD
# Adenosine receptor A3 = molecular target: T3, Adenosine receptor A3 (Homo sapiens, UniProt P0DMS8); test: Binding affinity of compound for displacement of specific [3H]MRE3008-F20 binding at human A3 receptors expressed in CHO cells; type: cell-based
# T3 sequence (P0DMS8 whole entry): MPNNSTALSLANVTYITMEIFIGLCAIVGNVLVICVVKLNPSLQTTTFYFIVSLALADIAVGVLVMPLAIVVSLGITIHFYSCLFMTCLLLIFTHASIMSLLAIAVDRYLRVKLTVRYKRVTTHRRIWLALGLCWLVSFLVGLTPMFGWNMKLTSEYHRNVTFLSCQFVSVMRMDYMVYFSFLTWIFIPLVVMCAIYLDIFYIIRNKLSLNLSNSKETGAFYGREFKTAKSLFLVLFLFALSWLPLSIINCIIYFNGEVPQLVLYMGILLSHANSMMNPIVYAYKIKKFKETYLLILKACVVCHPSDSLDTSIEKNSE
# Adenosine receptor A2a = Adenosine receptor A2a (Homo sapiens, UniProt P29274); test: Binding affinity of compound for displacement of specific [3H]ZM-241385 binding at human adenosine A2A receptor expressed in CHO cells; type: cell-based
# Chain of Adenosine receptor A2a (P29274 whole entry): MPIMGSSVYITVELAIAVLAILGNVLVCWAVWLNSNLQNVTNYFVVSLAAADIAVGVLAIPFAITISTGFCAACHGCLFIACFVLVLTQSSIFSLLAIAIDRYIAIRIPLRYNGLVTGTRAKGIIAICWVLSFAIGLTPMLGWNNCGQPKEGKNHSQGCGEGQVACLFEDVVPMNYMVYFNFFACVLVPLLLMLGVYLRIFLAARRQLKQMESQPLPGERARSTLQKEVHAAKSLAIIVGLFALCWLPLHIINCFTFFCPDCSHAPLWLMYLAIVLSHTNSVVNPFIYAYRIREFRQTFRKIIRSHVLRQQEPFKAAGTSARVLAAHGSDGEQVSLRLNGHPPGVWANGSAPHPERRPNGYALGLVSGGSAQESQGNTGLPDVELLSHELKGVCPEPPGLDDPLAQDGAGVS
Ki (Adenosine receptor A2b [1]),Ki (Adenosine receptor A2b [2]) [µM],IC50 (Adenosine receptor A2b [3]),Ki (Adenosine receptor A1) [µM],Ki (Adenosine receptor A3) [µM],Ki (Adenosine receptor A2a) [µM],Structure (SMILES)
0.012 µM and 0.015 µM,0.012,0.07 µM and 0.065 µM,0.26,–,–,CCCn1c(=O)c2[nH]c(-c3cc(OCC(=O)N4CCN(c5ccccc5)CC4)nn3C)nc2n(CCC)c1=O
0.028 µM,–,–,–,–,–,CCCn1c(=O)c2[nH]c(-c3cc(NC(=O)Cc4ccc(Cl)cc4)nn3C)nc2n(CCC)c1=O
0.019 µM,–,0.075 µM,–,–,–,CCCn1c(=O)c2[nH]c(-c3cc(OCC(=O)Nc4ccc(C)cc4)nn3C)nc2n(CCC)c1=O
–,–,–,> 1,–,–,CCCn1c(=O)c2[nH]c(-c3ccc(OCC(=O)Nc4ccc(I)cc4)nn3)nc2n(CCC)c1=O
–,–,–,> 1,–,–,CCCn1c(=O)c2[nH]c(-c3cc(NC(=O)Cc4ccc(N(C)C)cc4)nn3C)nc2n(CCC)c1=O
–,–,–,> 1,–,–,CCCn1c(=O)c2[nH]c(-c3cc(NC(=O)Cc4ccc([N+](=O)[O-])cc4)nn3C)nc2n(CCC)c1=O
–,0.095,–,1.73,> 1,> 1,CCCn1c(=O)c2[nH]c(-c3ccc(NC(=O)Cc4ccc(OC)c(OC)c4)cc3)nc2n(CCC)c1=O
–,–,–,–,> 1,> 1,CC(C)Cn1c(=O)c2nc(-c3cc(OCC(=O)Nc4ccc(F)cc4)nn3C)[nH]c2n(CC(C)C)c1=O
–,0.13,–,–,–,–,CCCn1c(=O)c2[nH]c(-c3cc(NC(=O)Cc4ccc(C(F)(F)F)cc4)nn3C)nc2n(CCC)c1=O
0.013 µM,–,–,–,–,–,CCCn1c(=O)c2[nH]c(-c3cc(NC(=O)Cc4ccc(OCc5ccccc5C(F)(F)F)cc4)nn3C)nc2n(CCC)c1=O
–,0.11,–,1.36,> 1,> 1,CCCn1c(=O)c2nc(-c3ccc(NC(=O)Nc4cccc(Cl)c4)cc3)[nH]c2n(CCC)c1=O
–,–,–,> 1,–,–,CCCn1c(=O)c2[nH]c(-c3cc(NC(=O)CCC(=O)O)nn3C)nc2n(CCC)c1=O
–,–,–,> 1,–,–,CCCn1c(=O)c2[nH]c(-c3cc(NC(=O)[C@@H](C)c4ccccc4)nn3C)nc2n(CCC)c1=O
–,0.175,–,> 1,> 1,> 1,Cn1nc(-c2nc3c([nH]2)c(=O)n(C)c(=O)n3C)cc1N
–,–,–,> 1,–,–,Cn1nc(NC(=O)Cc2ccccc2)cc1-c1nc2c([nH]1)c(=O)n(C)c(=O)n2C
–,1.01,–,> 1,> 1,> 1,CCCn1c(=O)c2[nH]c(-c3cc(OCC(=O)Nc4ccc(C)cn4)nn3C)nc2n(CCC)c1=O
–,–,–,> 1,–,–,CCCn1c(=O)c2[nH]c(-c3cc(NC(=O)Cc4ccc(CC(C)C)cc4)nn3C)nc2n(CCC)c1=O
–,–,–,–,> 1,> 1,CCCn1c(=O)c2[nH]c(-c3cc(OCC(=O)Nc4ccc(C(C)CC)cc4)nn3C)nc2n(CCC)c1=O (configuration not stated)
–,> 1,–,> 1,> 1,> 1,CCCn1c(=O)c2[nH]c(-c3cc(NC(=O)Cc4cc(OC)c(OC)c(OC)c4)nn3C)nc2n(CCC)c1=O
–,–,–,> 1,–,–,CCCn1c(=O)c2[nH]c(-c3cc(OCC(=O)Nc4ccc(OC)c(OC)c4)no3)nc2n(CCC)c1=O
0.01 µM,–,0.04 µM,–,–,–,CCCn1c(=O)c2[nH]c(-c3cc(OCC(=O)Nc4ccc(C)c(C)c4)nn3C)nc2n(CCC)c1=O
–,–,–,> 1,–,–,CCCn1c(=O)c2[nH]c(-c3cc(NC(=O)Cc4cccc(OC)c4)nn3C)nc2n(CCC)c1=O
–,–,–,> 1,–,–,CCCn1c(=O)c2[nH]c(-c3cc(C(=O)O)n(C)n3)nc2n(CCC)c1=O
0.038 µM,–,–,> 1,–,> 1,CCCn1c(=O)c2[nH]c(-c3cc(NC(=O)Cc4ccc(OC)c(OC)c4)nn3C)nc2n(CCC)c1=O
–,0.516,–,> 1,> 1,> 1,CCCn1c(=O)c2c(nc(-c3ccc(N)cc3)n2C)n(CCC)c1=O

Structure (SMILES),Ki (Adenosine receptor A2b [1]),Ki (Adenosine receptor A2b [2]) [µM],IC50 (Adenosine receptor A2b [3]),Ki (Adenosine receptor A1) [µM],Ki (Adenosine receptor A3) [µM],Ki (Adenosine receptor A2a) [µM]
CCCn1c(=O)c2[nH]c(-c3cc(NC(=O)Cc4ccccc4)n(C)n3)nc2n(CCC)c1=O,0.034 µM,–,–,–,> 1,> 1
CCCn1c(=O)c2[nH]c(-c3cc(NC(=O)Cc4ccc5c(c4)OCO5)nn3C)nc2n(CCC)c1=O,0.018 µM,–,–,–,–,> 1
